Experimental data published in PubChem BioAssay (NCI).
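GI50: concentration for 50% inhibition of growth. TGI marks complete inhibition of growth.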

How the values were obtained:
Experiment in all cases: NCI tumour cell line growth inhibition, 384-well format
CAKI-1 renal = test system: CAKI-1 renal
HOP-62 NSCLC = test system: HOP-62 NSCLC
MDA-MB-231 breast = test system: MDA-MB-231 breast
SNB-19 CNS = test system: SNB-19 CNS
SF-295 CNS = test system: SF-295 CNS
MCF7 breast = test system: MCF7 breast
ACHN renal = test system: ACHN renal
MALME-3M melanoma = test system: MALME-3M melanoma
T-47D breast = test system: T-47D breast
HCC-2998 colon = test system: HCC-2998 colon
PC-3 prostate = test system: PC-3 prostate
SK-MEL-28 melanoma = test system: SK-MEL-28 melanoma
RPMI-8226 leukemia = test system: RPMI-8226 leukemia

| Compound | GI50 (CAKI-1 renal) [nM] | TGI (CAKI-1 renal) [nM] | GI50 (HOP-62 NSCLC) [nM] | TGI (HOP-62 NSCLC) [nM] | GI50 (MDA-MB-231 breast) [nM] | TGI (MDA-MB-231 breast) [nM] | GI50 (SNB-19 CNS) [nM] | TGI (SNB-19 CNS) [nM] | GI50 (SF-295 CNS) [nM] | TGI (SF-295 CNS) [nM] | GI50 (MCF7 breast) [nM] | TGI (MCF7 breast) [nM] | GI50 (ACHN renal) [nM] | TGI (ACHN renal) [nM] | GI50 (MALME-3M melanoma) [nM] | TGI (MALME-3M melanoma) [nM] | GI50 (T-47D breast) [nM] | TGI (T-47D breast) [nM] | GI50 (HCC-2998 colon) [nM] | TGI (HCC-2998 colon) [nM] | other results |
| --- | --- | --- | --- | --- | --- | --- | --- | --- | --- | --- | --- | --- | --- | --- | --- | --- | --- | --- | --- | --- | --- |
| Cc1cc2c(cc1C)NC1=C(N2)OC(c2c3ccccc3cc3ccccc23)C1=O (configuration not stated) | 750 | 5690 | 325 | 825 | 554 | 2810 | 397 | 1540 | 208 | 495 | 397 | 1910 | 546 | 13600 | 334 | 1100 | 1070 | 6250 | 688 | 1570 | GI50 (PC-3 prostate): 422 nM; TGI (PC-3 prostate): 1440 nM; GI50 (SK-MEL-28 melanoma): 573 nM; TGI (SK-MEL-28 melanoma): 4410 nM; GI50 (RPMI-8226 leukemia): 223 nM; TGI (RPMI-8226 leukemia): 390 nM |
| O=C(O)c1ccc(CN2CCC(CN[C@@H]3C[C@H]3c3ccccc3)CC2)cc1 | > 100000 | > 100000 | > 100000 | > 100000 | > 100000 | > 100000 | > 100000 | > 100000 | > 100000 | > 100000 | > 100000 | > 100000 | > 100000 | > 100000 | > 100000 | > 100000 | > 100000 | > 100000 | > 100000 | > 100000 | GI50 (PC-3 prostate): > 100000 nM; TGI (PC-3 prostate): > 100000 nM; GI50 (SK-MEL-28 melanoma): > 100000 nM; TGI (SK-MEL-28 melanoma): > 100000 nM; GI50 (RPMI-8226 leukemia): > 100000 nM; TGI (RPMI-8226 leukemia): > 100000 nM |
